# From the supplement of paper PMC3974653
# Where a name gives a salt, the structure may show the parent alone.
# System: MTT (mouse pheochromocytoma)
# Assay: IC50 of cell viability (ATP content)
# Settings: (24 or 48 h)
# How it was run: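 CellTiter-Glo ATP luminescence, read after 15 minutes, was used to assess MTT mouse pheochromocytoma cells treated for 24 or 48 hrs with library compounds (final 0.5 nM to 46 µM, 8 concentrations). The cells had been plated at 5 µl of 200,000 cells/ml per well in white 1536-well plates in DMEM with 5% FBS and 1% horse serum and cultured overnight at 37°C, 5% CO2. Normalisation set positive-control wells to 100% and DMSO wells to 0%. The IC50 was then determined by four-parameter logistic fitting.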
row,Compound,IC50 of cell viability [µM]
1,CNC1C(OC2C(O[C@@H]3C(O)C(O)[C@@H](NC(=N)N)C(O)C3NC(=N)N)OC(C)[C@@]2(O)CO)OC(CO)C(O)C1O.O=[S+]([O-])(O)O (some centres not stated) [DIHYDROSTREPTOMYCIN SULFATE],> 46
2,CC1CCC(O)C/C1=C\C=C1/CCCC2(C)C1CCC2C(C)/C=C/C(C)C(C)C (configuration not stated) [DIHYDROTACHYSTEROL],> 46
3,COc1cc(C(=O)OCCCN2CCCN(CCCOC(=O)c3cc(OC)c(OC)c(OC)c3)CC2)cc(OC)c1OC [DILAZEP],> 46
4,COc1ccc([C@@H]2Sc3ccccc3N(CCN(C)C)C(=O)[C@@H]2OC(C)=O)cc1 [DILTIAZEM],> 46
5,CCN(CC)CCOc1ccc2nc(N(C)C)sc2c1 [DIMAZOLE DIHYDROCHLORIDE],> 46
6,COc1ccc2c(=O)c(C)c(-c3ccccc3)oc2c1CN(C)C [DIMEFLINE HYDROCHLORIDE],> 46
7,CC(Cc1ccccc1)N(C)C (configuration not stated) [DIMETAMFETAMINUM],> 46
8,CC1(C)OC(=O)NC1=O [DIMETHADIONE],> 46
9,CCCCCCCCCCCCCC(=O)OCC(COP(=O)([O-])OCC[N+](C)(C)C)OC(=O)CCCCCCCCCCCCC (configuration not stated) [DIMYRISTOYL LECITHIN],> 46
10,Cc1c(C(N)=O)cc([N+](=O)[O-])cc1[N+](=O)[O-] [DINITOLMIDE],> 46
11,CCCCC[C@H](O)/C=C/[C@H]1[C@H](O)CC(=O)[C@@H]1C/C=C\CCCC(=O)O [DINOPROSTONE],> 46
12,COC1=CC=C(C=C1O)C/2=C/C(=O)C3=C(O)C=C(O[C@H]4OC(COC5OC(C)C(O)C(O)[C@H]5O)C(O)C(O)C4O)C=C3O2 (some centres not stated) [DIOSMIN],> 46
13,CN(C)CCOC(c1ccccc1)c1ccccc1 [DIPHENHYDRAMINE],> 46
14,CCOC(=O)C1(c2ccccc2)CCN(CCC(C#N)(c2ccccc2)c2ccccc2)CC1 [DIPHENOXYLATE HYDROCHLORIDE],> 46
15,c1ccc(-c2nc[nH]c2-c2ccccc2)cc1 [DIPHENYLIMIDAZOLE],> 46
16,C[N+]1(CC2COC(c3ccccc3)(c3ccccc3)O2)CCCCC1 (configuration not stated) [DIPHENYLPIPERIDINOMETHYLDIOXOLAN IODIDE (Anacolin)],> 46
17,CC[N+](CC)(CC)CCOC(=O)C(C1CCCC1)C1CCCC1 [DIPONIUM BROMIDE],> 46
18,OCCN(CCO)c1nc(N2CCCCC2)c2nc(N(CCO)CCO)nc(N3CCCCC3)c2n1 [DIPYRIDAMOLE],> 46
19,CC(=O)Oc1cccc(C(=O)O)c1OC(C)=O [DIPYROCETYL],> 46
20,CC[C@H]1OC(=O)[C@H](C)[C@@H](O[C@H]2C[C@@](C)(OC)[C@@H](O)[C@H](C)O2)[C@H](C)[C@@H](O[C@@H]2O[C@H](C)C[C@H](N(C)C)[C@H]2O)[C@](C)(O)C[C@@H](C)[C@@H]2N[C@@H](COCCOC)O[C@H]([C@H]2C)[C@]1(C)O [DIRITHROMYCIN],> 46
21,O=[N+]([O-])c1cc(I)c(O)c(I)c1 [DISOPHENOL SODIUM],> 46

row,Compound,IC50 of cell viability [µM]
1,Cn1cc(NC(=O)c2cc(NC(=O)c3cc(NC=O)cn3C)cn2C)cc1C(=O)NCCC(=N)N [DISTAMYCIN A],> 46
2,CCN(CC)C(=S)S [DITIOCARBUM NATRICUM],> 46
3,CN(C)C(=O)Nc1ccc(Cl)c(Cl)c1 [DIURON],> 46
4,CC(CCc1ccc(O)cc1)NCCc1ccc(O)c(O)c1 (configuration not stated) [DOBUTAMINE],> 46
5,CC(=O)O[C@@]12CO[C@@H]1C[C@H](O)[C@@]1(C)C(=O)[C@H](O)C3=C(C)[C@@H](OC(=O)C(O)[C@@H](NC(=O)OC(C)(C)C)c4ccccc4)C[C@@](O)([C@@H](OC(=O)c4ccccc4)[C@H]21)C3(C)C (some centres not stated) [DOCETAXEL],> 46
6,CC/C=C\C/C=C\C/C=C\C/C=C\C/C=C\C/C=C\CCC(=O)O [DOCOSAHEXAENOIC ACID],> 46
7,CCCCCCCCCCCCCCCCCCCCCCO [DOCOSANOL],> 46
8,FC(F)(F)C(F)(F)C(F)(F)C(F)(F)C(F)(F)F [DODECAFLUOROPENTANE],> 46
9,C[S+](=O)([O-])O.O.O=C(O[C@@H]1C[C@@H]2C[C@@H]3C[C@H](C1)N2CC3=O)c1c[nH]c2ccccc12 [DOLASETRON MESYLATE],> 46
10,COc1cc2c(cc1OC)C(=O)C(CC1CCN(Cc3ccccc3)CC1)C2 (configuration not stated) [DONEPEZIL HYDROCHLORIDE],> 46
11,NCCc1ccc(O)c(O)c1 [DOPAMINE],> 46
12,Cc1ccc(-n2nc(C(C)(C)C)cc2NC(=O)Nc2ccc(OCCN3CCOCC3)c3ccccc23)cc1 [DORAMAPIMOD],> 46
13,O=[N+]([O-])c1nccn1CO[C@@H](CO)[C@H](O)CO [DORANIDAZOLE],> 46
14,C[C@@H](O)[C@H]1C(=O)N2C(C(=O)O)=C(S[C@@H]3CN[C@H](CN[S+](N)(=O)[O-])C3)[C@H](C)[C@H]12 [DORIPENEM HYDRATE],> 46
15,CCN1CC(CCN2CCOCC2)C(c2ccccc2)(c2ccccc2)C1=O (configuration not stated) [DOXAPRAM HYDROCHLORIDE],> 46
16,CCN(CC)CCOC(=O)C(c1ccccc1)C1CCCCC1.Cl (configuration not stated) [DROFENINE HYDROCHLORIDE],> 46
17,OCC(O)CN1CCN(c2ccccc2)CC1 (configuration not stated) [DROPROPIZINE],> 46
18,CN(C)/N=N/c1nc[nH]c1C(N)=O [Dacarbazine],> 46
19,C#C[C@]1(O)CC[C@H]2[C@@H]3CCC4=Cc5oncc5C[C@]4(C)[C@H]3CC[C@@]21C [Danazol],> 46
20,CN1C[C@@H]2C[C@H]1CN2c1cc2c(cc1F)c(=O)c(C(=O)O)cn2C1CC1 [Danofloxacin mesylate],> 46
21,O=C1c2cccc(O)c2C(=O)c2c(O)cccc21 [Danthron],> 46

row,Compound,IC50 of cell viability [µM]
1,Cc1c(Cn2ccnc2)c2ccccc2n1CCC(=O)O [Dazmegrel],> 46
2,CN(C)CCO [Deanol],> 46
3,N=C(N)N1CCc2ccccc2C1 [Debrisoquin sulfate],> 46
4,CCCCCCCCCC(=O)O [Decanoic acid],> 46
5,CCCCCCCCCCOCC(O)CN (configuration not stated) [Decominol],> 46
6,CC(=O)N(O)CCCCCNC(=O)CCC(=O)N(O)CCCCCNC(=O)CCC(=O)N(O)CCCCCN.C[S+](=O)([O-])O [Deferoxamine mesylate],> 46
7,CC(=O)O[C@H]1CC[C@]\2(C)[C@@H]3CC[C@@]4(C)[C@H](CCC4=O)[C@@H]3C\C=C2C1 [Dehydroisoandosterone 3-acetate],> 46
8,[Na+].C[C@]12CC[C@H]3[C@@H](C\C=C/4C[C@H](CC[C@]34C)O[S]([O-])(=O)=O)[C@@H]1CCC2=O [Dehydroisoandrosterone 3-sulfate sodium],> 46
9,Cc1cc(O)cc2c1O[C@](C)(CCC[C@H](C)CCC[C@H](C)CCCC(C)C)CC2 [Delta-Vitamin E],> 46
10,CN(C)[C@H]\1[C@@H]2C[C@@H]\3[C@@H](O)C4=C(Cl)C=CC(=C4C(=O)C3=C(\O)[C@@]2(O)C(=O)\C(=C1O)C(N)=O)O [Demeclocycline hydrochloride],> 46
11,O=C1C[N+]([O-])=C(c2ccccc2)c2cc(Cl)ccc2N1 [Demoxepam],> 46
12,C[C@H](CCC(=O)[O-])[C@H]1CC[C@H]2[C@@H]3CC[C@@H]4C[C@H](O)CC[C@]4(C)[C@H]3C[C@H](O)[C@]12C [Deoxycholic acid sodium salt],> 46
13,C[C@@]12CC[C@H]3[C@@H](CC\C4=C\C(=O)CC[C@@]34C)[C@H]1CC[C@H]2C(=O)CO [Deoxycorticosterone],> 46
14,C[C@]12CC[C@H]3c4ccc(O)cc4CC[C@@H]3[C@H]1CC[C@@H]2OC(=O)CCC1CCCC1 [Depoestradiol],> 46
15,CCCCNc1ccc(C(=O)OCC[NH+](CC)CC)cc1 [Depolipon],> 46
16,CN1[C@@H]2CC[C@@H]1CC(OC1c3ccccc3CCc3ccccc31)C2.O=C(O)CC(O)(CC(=O)O)C(=O)O (some centres not stated) [Deptropine citrate],> 46
17,CNCCCN1c2ccccc2CCc2ccccc21 [Desipramine hydrochloride],> 46
18,ClC1=CC=C2C(CCC3=C(N=CC=C3)\C2=C4\CCNCC4)=C1 [Desloratadine],> 46
19,ClC1=CC=C2NC(=O)C\N=C(\C3=CC=CC=C3)C2=C1 [Desmethyldiazepam],> 46
20,C[C@@H]1C[C@H]2[C@@H]3CCC/4=C/C(=O)/C=C\[C@]4(C)[C@@]3(F)[C@@H](O)C[C@]2(C)[C@H]1C(=O)CO [Desoximetasone],> 46
